Source: publication PMC5095920 (Biochemical Journal, 2016)

Molecular target: T1, HemQ (Staphylococcus aureus, UniProt Q2YS77)
T1 sequence (Q2YS77 1-250): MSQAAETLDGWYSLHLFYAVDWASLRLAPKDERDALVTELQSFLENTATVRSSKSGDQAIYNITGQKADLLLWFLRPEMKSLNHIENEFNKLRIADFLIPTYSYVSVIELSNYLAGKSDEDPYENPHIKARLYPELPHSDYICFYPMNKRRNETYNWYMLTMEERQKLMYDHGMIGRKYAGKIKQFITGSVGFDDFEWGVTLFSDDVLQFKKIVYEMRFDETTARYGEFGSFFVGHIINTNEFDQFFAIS
Assay: co-purification on affinity column, absorption spectroscopy
Format: binding
Settings: porphyrin added before affinity chromatography, pH 8.0

CC1=C(CCC(=O)O)c2cc3nc(cc4[nH]c(cc5[nH]c(cc1n2)c(C)c5CCC(=O)O)c(CCC(=O)O)c4C)C(CCC(=O)O)=C3C [coproporphyrin III]
co-purification on affinity column, absorption spectroscopy: HemQ that was loaded with bound haem, protoporphyrin IX, and coproporphyrin III

C=CC1=C(C)c2cc3[nH]c(cc4nc(cc5[nH]c(cc1n2)c(C)c5CCC(=O)O)C(CCC(=O)O)=C4C)c(C)c3C=C [protoporphyrin IX]
co-purification on affinity column, absorption spectroscopy: HemQ that was loaded with bound haem, protoporphyrin IX, and coproporphyrin III
